Here are results for eleven substances from US7820379B2, “Process for high throughput screening of CpG-based immuno-agonist/antagonist” (Coley Pharmaceutical GmbH, priority 2000, dated 2010).

The first series has as its target T1, human TLR9 (Homo sapiens, UniProt Q9NR96, H530R/Q688R).
T1 construct: expressed in transfected cells
T1 sequence (Q9NR96 26-1032 H530R/Q688R): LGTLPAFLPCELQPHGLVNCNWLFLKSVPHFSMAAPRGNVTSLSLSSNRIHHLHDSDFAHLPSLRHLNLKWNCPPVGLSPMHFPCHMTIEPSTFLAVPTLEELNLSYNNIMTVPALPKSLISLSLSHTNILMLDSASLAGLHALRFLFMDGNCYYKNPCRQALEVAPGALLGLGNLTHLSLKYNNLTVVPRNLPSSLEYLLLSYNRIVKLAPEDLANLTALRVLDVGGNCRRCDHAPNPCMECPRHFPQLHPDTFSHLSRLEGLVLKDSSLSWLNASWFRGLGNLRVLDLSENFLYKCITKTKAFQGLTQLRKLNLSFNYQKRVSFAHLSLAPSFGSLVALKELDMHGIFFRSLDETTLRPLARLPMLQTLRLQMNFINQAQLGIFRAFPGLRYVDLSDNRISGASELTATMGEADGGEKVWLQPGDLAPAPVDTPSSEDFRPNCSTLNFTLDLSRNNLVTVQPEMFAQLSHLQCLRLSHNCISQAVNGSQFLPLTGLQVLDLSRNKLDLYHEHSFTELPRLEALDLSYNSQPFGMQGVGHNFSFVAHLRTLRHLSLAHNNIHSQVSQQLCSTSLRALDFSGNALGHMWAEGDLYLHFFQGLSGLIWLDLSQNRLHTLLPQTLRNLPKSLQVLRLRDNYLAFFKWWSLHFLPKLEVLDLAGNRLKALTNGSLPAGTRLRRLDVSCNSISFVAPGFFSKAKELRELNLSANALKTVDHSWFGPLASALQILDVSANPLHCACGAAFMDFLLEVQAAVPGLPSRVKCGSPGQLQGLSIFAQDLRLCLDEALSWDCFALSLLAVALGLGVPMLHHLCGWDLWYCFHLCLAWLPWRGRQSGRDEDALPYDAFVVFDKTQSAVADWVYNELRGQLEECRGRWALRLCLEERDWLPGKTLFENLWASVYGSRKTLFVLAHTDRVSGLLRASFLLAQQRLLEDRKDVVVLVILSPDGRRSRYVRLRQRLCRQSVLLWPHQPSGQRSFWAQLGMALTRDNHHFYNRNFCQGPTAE
Briefly: NF-κB-luciferase activation in 293 cells transfected with human TLR9 (293-hTLR9-luc). In kind it is cell-based. The conditions noted are these: 293 cells transiently transfected with hTLR9 and NF-κB-luc; 8 h; ODN 2 μM, LPS 100 ng/ml. The source says: Since NF-κB activation is central to the IL-1/TLR signal transduction pathway (Medzhitov R et al., Mol Cell 2:253-258 (1998); Muzio M et al., J Exp Med 187:2097-2101 (1998)), cells were transfected with hTLR9 or co-transfected with hTLR9 and a NF-κB-driven luciferase reporter construct. Human fibroblast 293 cells were transiently transfected with (FIG. 1A) hTLR9 and a six-times NF-κB-luciferase reporter plasmid (NF-κB-luc, kindly provided by Patrick Baeuerle, Munich, Germany) or (FIG. 1B) with hTLR9 alone. After stimulus with CpG-ODN (2006, 2 μM, […], SEQ ID NO:112), GpC-ODN (2006-GC, 2 μM, […], SEQ ID NO:118), LPS (100 ng/ml) or media, NF-κB activation by luciferase readout (8 h, FIG. 1A) or IL-8 production by ELISA (48 h, FIG. 1B) were monitored. Results are representative of three independent experiments.
To generate stable clones expressing human TLR9, murine TLR9, or either TLR9 with the NF-κB-luc reporter plasmid, 293 cells were transfected in 10 cm plates (2×10^6 cells/plate) with 16 μg of DNA and selected with 0.7 mg/ml G418 (PAA Laboratories GmbH, Cölbe, Germany). The clones were also screened for IL-8 production or NF-κB-luciferase activity after stimulation with ODN. Four different types of clones were generated. • 293-hTLR9-luc: expressing human TLR9 and 6-fold NF-κB-luciferase reporter • 293-mTLR9-luc: expressing murine TLR9 and 6-fold NF-κB-luciferase reporter • 293-hTLR9: expressing human TLR9 • 293-mTLR9: expressing murine TLR9 […]
Because stable TLR9 transfectants mirrored primary cell responsiveness to CpG-DNA (FIGS. 4 and 5), it was hypothesized that stable transfectants could potentially discern species-specific CpG-motifs through TLR9 receptors. Therefore 293-hTLR9-luc (expressing human TLR9 and 6-fold NF-κB-luc reporter), 293-mTLR9-luc (expressing murine TLR9 and 6-fold NF-κB-luc reporter), 293-hTLR9 (expressing human TLR9) and 293-mTLR9 (expressing murine TLR9) clones were tested for CpG-DNA motif responsiveness. […] Depicted are both NF-κB-driven luciferase and IL-8 production as readout. […] After lysis of the cells luciferase can be detected photometrically based on an enzymatic reaction by luciferase which creates photons. IL-8 production was monitored using enzyme-linked immunosorbent assay (ELISA). FIG. 11 depicts clones stimulated with ODN 2006 (filled circle), ODN 2006-GC (open circle), ODN 1668 (filled triangle) or ODN 1668-GC (open triangle) at indicated concentrations and NF-κB activation or IL-8 production were measured after 10 and 48 hours, respectively. Results shown in FIG. 11 are representative of three independent experiments. Strikingly, CpG-motif sequence specificity was conferred in a species-specific manner by TLR9. Additionally, the half-maximal concentration for either 2006 or 1668 appears nearly the same as those determined on primary cells (compare FIG. 10 and FIG. 11).
Although 2006 and 1668 are discussed in terms of CpG-motif differences, they are very different in several aspects (see Table 5 for comparison). The lengths are different, 24 versus 20 nucleotides, and 2006 has four CG dinucleotides compared to one in 1668. Additional differences are the CG position relative to the 5′ and 3′ ends and also 5′ sequence differences. In order to determine if motif specificity is a quality of the motif and not the global sequence environment, for this experiment several sequences were produced holding these variables constant. As a starting point, the 1668 sequence was modified by converting the central C to T and the distal TG to CG, thereby creating a second CG in the resulting sequence 5000 (SEQ ID NO:130, Table 5). Then point nucleotide changes were made, progressing toward a 2006-like sequence, 5007 (SEQ ID NO:98). The ODN 5002 (SEQ ID NO:132) is most like 1668 with the exception that C's at positions 12 and 19 have been converted to T's. […]
TCGTCGTTTTGTCGTTTTGTCGTT [ODN 2006]: the “NF-κB activation by luciferase readout” value was “responded”.

With lipopolysaccharide [LPS], the “NF-κB activation by luciferase readout” value is “not”.

Still in this series, the particulars now being: CpG-ODN 2006 compared with CpG-ODN 1668.
TCGTCGTTTTGTCGTTTTGTCGTT [ODN 2006]: the “human TLR9 signaling response” value is listed as “significantly stronger”.

Staying with this series, now noted: ODN concentration of half-maximal activation; 293-hTLR9-luc cells, NF-κB-driven luciferase readout, 12 hours; read-out: 293-hTLR9 Kac.
In the case of “TCCATGACGTTCCTGATGCT (listed as DNA, chemistry not fully specified) [ODN 1668]”, the EC50 is above 10 µM.

“TCCATGACGTTCTTGACGCT (listed as DNA, chemistry not fully specified) [ODN 5000]”: the EC50 was 10 µM.

For the substance “TCCATGACGTTCTTGACGTT (listed as DNA, chemistry not fully specified) [ODN 5001]”, the EC50 was found to be 7 µM.

Take “TCCATGAGCTTCCTGATGCT (listed as DNA, chemistry not fully specified) [ODN 1668-GC]”: the EC50 is above 10 µM.

With “TCCATGTCGTTCTTGATGTT (listed as DNA, chemistry not fully specified) [ODN 5004]”, the EC50 is 5 µM.

Consider “TCCATGTCGTTTTTGATGTT (listed as DNA, chemistry not fully specified) [ODN 5005]”, for which the EC50 was determined as 3 µM.

In the case of “TCCATGTCGTTTTTGTCGTT (listed as DNA, chemistry not fully specified) [ODN 5007]”, the EC50 was determined as 0.7 µM.

Consider “TCCATGTCGTTTTTGTTGTT (listed as DNA, chemistry not fully specified) [ODN 5006]”, for which the EC50 came out at 3 µM.

Consider TCGTCGTTTTGTCGTTTTGTCGTT [ODN 2006], for which the EC50 was found to be 0.4 µM.

“TGCTGCTTTTGTGCTTTTGTGCTT (listed as DNA, chemistry not fully specified) [ODN 2006-GC]”: the EC50 was above 10 µM.
